Counter-ions that a name gives are not always drawn.
Key:
[1] = tested on: P. protegens Pf-5; experiment: Genetic part characterization for P. protegens (promoters, RBSs, terminators, inducible systems; fluorescence reporter, flow cytometry); format: cell-based, Pseudomonas protegens; conditions: for function of inducible system: P. protegens Pf-5, pRO1600 plasmid; for Strength (GFP, au): synthetic RBS strength in P. protegens Pf-5, plasmid pMR-65, arabinose-inducible system, 7 μM arabinose induction
Source text: Construction and characterization genetic parts for P. protegens. Genetic part libraries were built on a pRO1600-ori plasmid pMR-2 using Gibson assembly (New England Biolabs, Cat # E2611). The fluorescence proteins, GFPmut3b and mRFP1 were used as reporters. The Anderson promoter library on the BioBricks Registry were utilized for the characterization of constitutive promoters (FIGS. 11A-11C). The following combinations of cognate regulators and inducible promoters were characterized. IPTG inducible LacI-Ptac, DAPG inducible PhlF-PPhl, aTc inducible TetR-PTet, 3OC6HSL inducible LuxR-PLux, arabinose inducible AraC-PBAD, cuminic acid inducible CymR-PCym, and naringenin inducible FdeR-PFde were optimized (FIGS. 15A-15C). […] RBS library for GFP was designed using the RBS library calculator at the highest-resolution mode, and the 3′ end of the 16S rRNA sequences were adjusted according to the species (3′-ACCTCCTTA-5′ for P. protegens Pf-5). Terminators for T7 RNAP were characterized by placing a terminator between two fluorescence reporters expressed from a single T7 wild-type promoter located upstream of the first fluorescence protein GFP. The expression of the two fluorescence proteins is enabled by an IPTG-inducible T7 RNAP expression system of the controller strain MR7 (FIGS. 13A-13B). All genetic parts for P. protegens Pf-5 were characterized as follows.

[2] = tested on: R. sp. IRBG74; experiment: Genetic part characterization for Rhizobia (promoters, RBSs, terminators, inducible systems; fluorescence reporter, flow cytometry); format: cell-based, Rhizobium sp.; conditions: synthetic RBS strength in R. sp. IRBG74; plasmid pMR-40, IPTG-inducible system, 1 mM IPTG induction
Source text: Construction and characterization genetic parts for Rhizobia. Genetic part libraries were built on a pBBR1-ori plasmid pMR-1 using Gibson assembly (New England Biolabs, Cat # E2611). The fluorescence proteins, GFPmut3b and mRFP1 were used as reporters. The Anderson promoter library (Anderson, J. et al. BglBricks: A flexible standard for biological part assembly. 4, 1 (2010)) on the BioBricks Registry were utilized for the characterization of constitutive promoters (FIGS. 11A-11C). To characterize inducible promoters, a regulator protein is constitutively expressed by the PlacIq promoter, and GFP expression is driven by a cognate inducible promoter from the opposite direction, facilitating replacement of the reporter with gene of interest (e.g., T7 RNAP and nifA) and transfer of the controller unit across different plasmid backbones for diverse microbes. The following combinations of cognate regulators and inducible promoters were characterized. IPTG inducible LacI-A1lacO1, DAPG inducible PhlF-PPhl, aTc inducible TetR-PTet, 3OC6HSL inducible LuxR-PLux, salicylic acid inducible NahR-PSal, and cuminic acid inducible CymR-PCym systems were optimized for R. sp. IRBG74 (FIG. 14). Opine inducible OccR-Pocc, and nopaline inducible NocR-Pnoc systems were optimized for A. caulinodans (FIGS. 20A-20F and Tables 9 and 10). For RBS characterization, an IPTG-inducible GFP expression plasmid pMR-40 was used and GFP was expressed to the highest levels with 1 mM IPTG (FIGS. 12A-12B). RBS library for GFP was designed using the RBS library calculator at the highest-resolution mode, and the 3′ end of the 16S rRNA sequences were adjusted according to the species (3′-ACCTCCTTC-5′ for R. sp. IRBG74). Terminators for T7 RNAP were characterized by placing a terminator between two fluorescence reporters expressed from a single T7 wild-type promoter located upstream of the first fluorescence protein GFP. The expression of the two fluorescence proteins is enabled by the controller strain MR18 encoding the IPTG-inducible T7 RNAP system by 1 mM IPTG (FIGS. 13A-13B). The terminator strength (Ts) was determined by normalizing fluorescence levels of a terminator construct by a reference construct pMR-66 where a 40 bp spacer was placed between the reporters. All genetic parts for Rhizobia were characterized as follows.

## CCCC(=O)CC(=O)N[C@H]1CCOC1=O [3OC6HSL, N-(3-Oxohexanoyl)-L-homoserine lactone, reference compound]
[1]
  function of inducible system: functional

## Cc1c2c(c(O)c3c(O)cccc13)C(=O)[C@]1(O)C(=O)C(C(N)=O)=C(O)[C@@H](N(C)C)[C@@H]1C2 [aTc, Anhydrotetracycline hydrochloride, reference compound]
[1]
  function of inducible system: functional

## CC(C)c1ccc(C(=O)O)cc1 [cuminic acid, Cuminic acid, reference compound]
[1]
  function of inducible system: functional

## O=C1C[C@@H](c2ccc(O)cc2)Oc2cc(O)cc(O)c21 [naringenin, Naringenin, reference compound]
[1]
  function of inducible system: functional

## R135132 (DNA CTAGCGAAGGTCCAACGTTTTTCTAAGCAAGGAGGTCATATG; chemistry not fully specified)
[1]
  Strength (GFP, au): 21590 au

## R135133 (DNA CTAGCGAAGGTCCAACGTTTTTCTAAGCCAGGAGGTCATATG; chemistry not fully specified)
[1]
  Strength (GFP, au): 19690 au

## R135135 (DNA CTAGCGAAGCTCCAACGTTTTTCTAAGCAAGGAGGTCATATG; chemistry not fully specified)
[1]
  Strength (GFP, au): 17990 au

## RB5r1 (DNA ATTTCACACATCTAGAGCTAATCATCTCGTACTAAAGAGGAGAAATTAACCATG; chemistry not fully specified)
[2]
  Strength (GFP, au): 8242 au

## RB5r2 (DNA ATTTCACACATCTAGAGCTAATCATCGCGTACTCAGGAGGCAAGTAATG; chemistry not fully specified)
[2]
  Strength (GFP, au): 7181.5 au

## RB5r3 (DNA ATTTCACACATCTAGAATTAAAGAGGAGAAATTAACCATG; chemistry not fully specified)
[2]
  Strength (GFP, au): 6238.5 au

## RB5r4 (DNA TAACAATTTCACACATCTAGAGCTAATCATCTCGTACTAAAGAGGCAAGTAATG; chemistry not fully specified)
[2]
  Strength (GFP, au): 3618 au

## RB5r5 (DNA TAACAATTTCACACATCTAGAGCTAATCATCGCGTACTAAGGAGGCAAGTAATG; chemistry not fully specified)
[2]
  Strength (GFP, au): 3560 au

## RB5r6 (DNA TAACAATTTCACACATCTAGAGCTAATCATCGCGTACTCAAGAGGCAAGTAATG; chemistry not fully specified)
[2]
  Strength (GFP, au): 2614.5 au

## RB5r7 (DNA TAACAATTTCACACATCTAGAGCTAATCTTCGCGTACTAAAGAGGCAAGTAATG; chemistry not fully specified)
[2]
  Strength (GFP, au): 2418.5 au

## RB5r8 (DNA TAACAATTTCACACATCTAGAGCTAATCATCTCGTACTCAGGAGGCAAGTAATG; chemistry not fully specified)
[2]
  Strength (GFP, au): 1882.5 au

## RB5r9 (DNA TAACAATTTCACACATCTAGAGCTAATCATCTCGTACTAATGAGGCAAGTAATG; chemistry not fully specified)
[2]
  Strength (GFP, au): 1593.5 au

## RBST-10 (DNA TAACAATTTCACACATCTAGAGCTAATCATCGCGTACTAATGAGGCAAGTAATG; chemistry not fully specified)
[2]
  Strength (GFP, au): 1590 au

## RBST-11 (DNA TAACAATTTCACACATCTAGAGCTAATCATCGCGTACTCACGAGGCAAGTAATG; chemistry not fully specified)
[2]
  Strength (GFP, au): 1554 au

## RBSp1 (DNA CTAGCGCAGGTCCAACGTTTTTCTAAGCAAGGAGGTCATATG; expressed or natural sequence)
[1]
  Strength (GFP, au): 25090 au

## RBSp4 (DNA CTAGCGCAGGTCCAACGTTTTTCTAAGCCAGGAGGTCATATG; expressed or natural sequence)
[1]
  Strength (GFP, au): 19490 au

## RBSp6 (DNA GAATTCTACACTAACGGACAGGAGGGTCCGATG; expressed or natural sequence)
[1]
  Strength (GFP, au): 14490 au

## RBSp7 (DNA GAATTCTAAACTAACGGACAGGAGGGTCCGATG; expressed or natural sequence)
[1]
  Strength (GFP, au): 13390 au

## RBSp8 (DNA GAATTCTAAGCTAACGGACAGGAGGGTCCGATG; expressed or natural sequence)
[1]
  Strength (GFP, au): 12790 au

## RBSp9 (DNA GAATTCTTAACTAACGGACAGGAGGGTCCGATG; expressed or natural sequence)
[1]
  Strength (GFP, au): 11490 au

## RBSp10 (DNA GAATTCTACACTAACGGACAGGAGGGTCGGATG; expressed or natural sequence)
[1]
  Strength (GFP, au): 11090 au

## RBSp11 (DNA GAATTCTACGCTAACGGACAGGAGGGTCCGATG; expressed or natural sequence)
[1]
  Strength (GFP, au): 10390 au

## RBSp12 (DNA GAATTCTCAACTAACGGACAGGAGGGTCCGATG; expressed or natural sequence)
[1]
  Strength (GFP, au): 9590 au

## RBSp13 (DNA GAATTCTAAGCTAACGGACAGGAGGGTCGGATG; expressed or natural sequence)
[1]
  Strength (GFP, au): 8918 au

## RBSp14 (DNA GAATTCTCAGCTAACGGACAGGAGGGTCCGATG; expressed or natural sequence)
[1]
  Strength (GFP, au): 8766 au

## RBSp15 (DNA GAATTCTCAACTAACGGACAGGAGGGTCCGATG; expressed or natural sequence)
[1]
  Strength (GFP, au): 7596 au

## RBSp16 (DNA GAATTCTACGCTAACGGACAGGAGGGTCGGATG; expressed or natural sequence)
[1]
  Strength (GFP, au): 6055 au

## RBSp17 (DNA GAATTCTCAACTAACGGACAGGAGATATACATATG; expressed or natural sequence)
[1]
  Strength (GFP, au): 5939 au

## RBSp18 (DNA GAATTCTCAGCTAACGGACAGGAGGGTCGGATG; expressed or natural sequence)
[1]
  Strength (GFP, au): 5915 au

## RBSp19 (DNA GAATTCTAAACTAACGGACAGGAGGGTCGGATG; expressed or natural sequence)
[1]
  Strength (GFP, au): 4867 au

## RBSp20 (DNA GAATTCTCAGCTCACGGACAGGAGGGTCGGATG; expressed or natural sequence)
[1]
  Strength (GFP, au): 4426 au

## RBSp21 (DNA GAATTCTCAACTAACGGACAGGAGGGTCGGGATG; expressed or natural sequence)
[1]
  Strength (GFP, au): 4110 au

## RBSp22 (DNA GAATTCTACACTCACGGACAGGAGGGTCGGATG; expressed or natural sequence)
[1]
  Strength (GFP, au): 3977 au

## RBSp23 (DNA GAATTCTAAGCTCACGGACAGGAGGGTCGGATG; expressed or natural sequence)
[1]
  Strength (GFP, au): 3829 au

## RBSp24 (DNA GAATTCTCAACTCACGGACAGGAGGGTCGGATG; expressed or natural sequence)
[1]
  Strength (GFP, au): 3661 au

## RBSp25 (DNA GAATTCTACACTAACGGACAGCAGGGTCGGATG; expressed or natural sequence)
[1]
  Strength (GFP, au): 3542 au

## RBSp27 (DNA GAATTCTCAGCTAACGGACAGCAGGGTCGGATG; expressed or natural sequence)
[1]
  Strength (GFP, au): 1265 au

## RBSp28 (DNA CTAGCGCAGGTCCAACCTTTTTCTAAGCAACTAGGTCATATG; expressed or natural sequence)
[1]
  Strength (GFP, au): 389 au

## RBSp29 (DNA CTAGCGAAGGTCCAACCTTTTTCTAAGCCAGTAGGTCATATG; expressed or natural sequence)
[1]
  Strength (GFP, au): 377 au

## RBSp30 (DNA GAATTCTACGCTCACGGACAGCAGGGTCGGATG; expressed or natural sequence)
[1]
  Strength (GFP, au): 221 au

## RBSp31 (DNA GAATTCTCCGCTCACGGACAGGAGGGTCCGATG; expressed or natural sequence)
[1]
  Strength (GFP, au): 23.3 au

— patent US12281299B2, “Control of nitrogen fixation in rhizobia that associate with cereals” (Massachusetts Institute of Technology, priority 2019, dated 2025)
